Results taken from PubChem BioAssay AID256 (DTP/NCI, 2004).
Several values for one entry are separate records, joined by “and”; a condition that tells them apart may be missing. Identical values can stand only once. Inconclusive results and toxic doses are left out. The calls were made as follows: active = survival T/C of 150% or more; inactive = T/C below 125% in these data.

System: CD2F1 mice, L1210 leukemia ip, survival T/C
Assay: NCI In Vivo Anticancer Drug Screen. Data for tumor model L1210 Leukemia (intraperitoneal) in CD2F1 (CDF1) mice
Conditions: higher = longer survival
Method in brief: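 Tumor-bearing mice (transplanted tumor) were split into treated and vehicle control groups, and the measured endpoint of each treated group was divided by that of its vehicle controls.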

[1] = endpoint: mean survival time, dose: 6.25 mg/kg/injection, schedule: Q01DX001 (ip), vehicle: saline with Tween-80
[2] = endpoint: mean survival time, dose: 12.5 mg/kg/injection, schedule: Q01DX009 (ip), vehicle: saline with Tween-80
[3] = endpoint: mean survival time, dose: 25.0 mg/kg/injection, schedule: Q01DX009 (ip), vehicle: saline with Tween-80
[4] = endpoint: mean survival time, dose: 50.0 mg/kg/injection, schedule: Q01DX009 (ip), vehicle: saline with Tween-80
[5] = endpoint: mean survival time, dose: 100.0 mg/kg/injection, schedule: Q01DX001 (ip), vehicle: saline with Tween-80
[6] = endpoint: mean survival time, dose: 200.0 mg/kg/injection, schedule: Q01DX001 (ip), vehicle: saline with Tween-80
[7] = endpoint: mean survival time, dose: 400.0 mg/kg/injection, schedule: Q01DX001 (ip), vehicle: saline with Tween-80
[8] = endpoint: mean survival time, dose: 25.0 mg/kg/injection, schedule: Q04DX003 (ip), vehicle: saline with Tween-80
[9] = endpoint: mean survival time, dose: 50.0 mg/kg/injection, schedule: Q04DX003 (ip), vehicle: saline with Tween-80
[10] = endpoint: mean survival time, dose: 100.0 mg/kg/injection, schedule: Q04DX003 (ip), vehicle: saline with Tween-80
[11] = endpoint: mean survival time, dose: 100.0 mg/kg/injection, schedule: Q01DX009 (ip), vehicle: saline with Tween-80
[12] = endpoint: mean survival time, dose: 200.0 mg/kg/injection, schedule: Q01DX009 (ip), vehicle: saline with Tween-80
[13] = endpoint: mean survival time, dose: 200.0 mg/kg/injection, schedule: Q04DX003 (ip), vehicle: saline with Tween-80
[14] = endpoint: mean survival time, dose: 400.0 mg/kg/injection, schedule: Q01DX009 (ip), vehicle: saline with Tween-80
[15] = endpoint: mean survival time, dose: 400.0 mg/kg/injection, schedule: Q04DX003 (ip), vehicle: saline with Tween-80
[16] = endpoint: mean survival time, dose: 50.0 mg/kg/injection, schedule: Q01DX009 (ip), vehicle: Klucel (hydroxypropylcellulose) (HPC)
[17] = endpoint: mean survival time, dose: 100.0 mg/kg/injection, schedule: Q01DX009 (ip), vehicle: Klucel (hydroxypropylcellulose) (HPC)
[18] = endpoint: mean survival time, dose: 100.0 mg/kg/injection, schedule: Q04DX003 (ip), vehicle: saline
[19] = endpoint: mean survival time, dose: 200.0 mg/kg/injection, schedule: Q04DX003 (ip), vehicle: saline

Measured: T/C

C1=C(c2ccccc2)NN=C(c2ccccc2)C1c1ccccc1 (configuration not stated)
inactive: endpoint: mean survival time, dose: 1.56 mg/kg/injection, schedule: Q01DX001 (ip), vehicle: saline with Tween-80 103 % of control | endpoint: mean survival time, dose: 1.56 mg/kg/injection, schedule: Q01DX009 (ip), vehicle: saline with Tween-80 98 % of control | endpoint: mean survival time, dose: 3.13 mg/kg/injection, schedule: Q01DX001 (ip), vehicle: saline with Tween-80 101 % of control | endpoint: mean survival time, dose: 3.13 mg/kg/injection, schedule: Q01DX009 (ip), vehicle: saline with Tween-80 102 % of control | [1] 94 % of control | endpoint: mean survival time, dose: 6.25 mg/kg/injection, schedule: Q01DX009 (ip), vehicle: saline with Tween-80 98 % of control | endpoint: mean survival time, dose: 50.0 mg/kg/injection, schedule: Q01DX001 (ip), vehicle: saline with Tween-80 87 % of control

COc1ccc(NC(=O)Nc2ccc(C)c([N+](=O)[O-])c2)c(OC)c1
inactive: [2] 97 % of control | [3] 103 % of control | [4] 88 % of control and 94 % of control

Cc1cccc(C)c1N
inactive: [5] 96 % of control | [6] 94 % of control | [7] 91 % of control

CC(=O)/C(=C\c1ccccc1)CNC1CCCCC1
inactive: [1] 96 % of control | endpoint: mean survival time, dose: 12.5 mg/kg/injection, schedule: Q01DX001 (ip), vehicle: saline with Tween-80 104 % of control

C1=C(Nc2ccccc2)C(=Nc2ccccc2)C=C(Nc2ccccc2)C1=Nc1ccccc1
inactive: [8] 96 % of control | [9] 96 % of control | [10] 98 % of control

O=C(NC(O)C(Cl)(Cl)Cl)c1ccccc1 (configuration not stated)
inactive: [11] 94 % of control | [10] 107 % of control | [12] 89 % of control | [13] 107 % of control | [14] 91 % of control | [15] 107 % of control

CON(C)CCOC(=O)c1ccc([N+](=O)[O-])cc1
inactive: [5] 100 % of control | [6] 107 % of control | [7] 105 % of control

CCOC(=O)CCCSc1nn(C2OC(COC(=O)c3ccccc3)C(OC(=O)c3ccccc3)C2OC(=O)c2ccccc2)c(=O)[nH]c1=O (configuration not stated)
inactive: endpoint: mean survival time, dose: 12.5 mg/kg/injection, schedule: Q01DX005 (ip), vehicle: distilled water + Tween-80 93 % of control | endpoint: mean survival time, dose: 25.0 mg/kg/injection, schedule: Q01DX005 (ip), vehicle: distilled water + Tween-80 90 % of control | endpoint: mean survival time, dose: 50.0 mg/kg/injection, schedule: Q01DX005 (ip), vehicle: distilled water + Tween-80 93 % of control | endpoint: mean survival time, dose: 100.0 mg/kg/injection, schedule: Q01DX005 (ip), vehicle: distilled water + Tween-80 88 % of control | endpoint: mean survival time, dose: 200.0 mg/kg/injection, schedule: Q01DX005 (ip), vehicle: distilled water + Tween-80 92 % of control

CC1=NN(c2ccc(S(=O)(=O)O)cc2)C(=O)C1
inactive: [11] 93 % of control | [10] 96 % of control | [12] 87 % of control | [13] 104 % of control | [15] 98 % of control

Cc1cc(NC(=O)Nc2cc(F)ccc2F)no1
inactive: endpoint: mean survival time, dose: 25.0 mg/kg/injection, schedule: Q01DX009 (ip), vehicle: Klucel (hydroxypropylcellulose) (HPC) 101 % of control | [16] 103 % of control | [17] 101 % of control

Nc1nc2ncc(CN(N=O)c3ccc(C(=O)NC(CCC(=O)O)C(=O)O)cc3)nc2c(=O)[nH]1 (configuration not stated)
inactive: endpoint: mean survival time, dose: 10.0 mg/kg/injection, schedule: Q01DX009 (ip), vehicle: water 102 % of control | endpoint: mean survival time, dose: 20.0 mg/kg/injection, schedule: Q01DX009 (ip), vehicle: water 101 % of control | endpoint: mean survival time, dose: 40.0 mg/kg/injection, schedule: Q01DX009 (ip), vehicle: water 98 % of control | endpoint: mean survival time, dose: 80.0 mg/kg/injection, schedule: Q01DX009 (ip), vehicle: distilled water + Tween-80 94 % of control | endpoint: mean survival time, dose: 160.0 mg/kg/injection, schedule: Q01DX009 (ip), vehicle: distilled water + Tween-80 90 % of control

CC(C)c1cc(C(=O)O)c(O)c(C(C)C)c1.CC(C)c1cc(C(=O)O)c(O)c(C(C)C)c1.[Cu]
inactive: endpoint: median survival time, dose: 6.25 mg/kg/injection, schedule: Q01DX009 (ip), vehicle: saline with Tween-80 100 % of control | endpoint: median survival time, dose: 12.5 mg/kg/injection, schedule: Q01DX009 (ip), vehicle: saline with Tween-80 96 % of control | endpoint: median survival time, dose: 25.0 mg/kg/injection, schedule: Q01DX009 (ip), vehicle: saline with Tween-80 96 % of control

Clc1cc(CBr)c(CBr)cc1Cl
inactive: [2] 107 % of control | [3] 97 % of control | [4] 100 % of control

CC(=O)c1ccc2c3ccccc3n(C)c2c1
inactive: [16] 93 % of control | [17] 93 % of control | endpoint: mean survival time, dose: 200.0 mg/kg/injection, schedule: Q01DX009 (ip), vehicle: Klucel (hydroxypropylcellulose) (HPC) 93 % of control

CC1(C(=O)O)CCCC1C(CCC(=O)O)C(=O)O (configuration not stated)
inactive: [18] 98 % of control | [19] 96 % of control | endpoint: mean survival time, dose: 400.0 mg/kg/injection, schedule: Q04DX003 (ip), vehicle: saline 96 % of control

Cc1cc(C)[nH]c(=S)n1.[Pt]
inactive: endpoint: mean survival time, dose: 3.12 mg/kg/injection, schedule: Q04DX003 (ip), vehicle: saline with Tween-80 104 % of control | endpoint: mean survival time, dose: 3.12 mg/kg/injection, schedule: Q04DX003 (ip), vehicle: saline 120 % of control and 108 % of control | endpoint: mean survival time, dose: 6.25 mg/kg/injection, schedule: Q04DX003 (ip), vehicle: saline with Tween-80 102 % of control | endpoint: mean survival time, dose: 6.25 mg/kg/injection, schedule: Q04DX003 (ip), vehicle: saline 117 % of control and 96 % of control | endpoint: mean survival time, dose: 12.5 mg/kg/injection, schedule: Q04DX003 (ip), vehicle: saline with Tween-80 101 % of control | endpoint: mean survival time, dose: 12.5 mg/kg/injection, schedule: Q04DX003 (ip), vehicle: saline 96 % of control | [8] 98 % of control | endpoint: mean survival time, dose: 25.0 mg/kg/injection, schedule: Q04DX003 (ip), vehicle: saline 102 % of control | [9] 101 % of control | endpoint: mean survival time, dose: 50.0 mg/kg/injection, schedule: Q04DX003 (ip), vehicle: saline 96 % of control and 97 % of control | [10] 101 % of control | [18] 120 % of control and 96 % of control | [13] 107 % of control | [19] 106 % of control

O=c1[nH]c2ccc(I)cc2c(=O)o1
inactive: [10] 101 % of control | [13] 98 % of control | [15] 104 % of control

COC(=O)c1ccc(O)c(O)c1
inactive: [11] 102 % of control | [10] 99 % of control | [12] 101 % of control | [13] 102 % of control | [14] 90 % of control | [15] 91 % of control

C(#[C][Ge]([C]#Cc1ccccc1)([C]#Cc1ccccc1)[C]#Cc1ccccc1)c1ccccc1
inactive: [3] 91 % of control | [4] 88 % of control | [11] 96 % of control | [12] 90 % of control

CNc1ncnc2[nH]cc([N+](=O)[O-])c12
inactive: endpoint: mean survival time, dose: 75.0 mg/kg/injection, schedule: Q01DX001 (ip), vehicle: saline 96 % of control | endpoint: mean survival time, dose: 150.0 mg/kg/injection, schedule: Q01DX001 (ip), vehicle: saline 106 % of control | endpoint: mean survival time, dose: 300.0 mg/kg/injection, schedule: Q01DX001 (ip), vehicle: saline 106 % of control

CC(=O)CC(=O)c1ccccc1.CC(=O)CC(=O)c1ccccc1.[Pd]
inactive: endpoint: mean survival time, dose: 3.13 mg/kg/injection, schedule: Q04DX003 (ip), vehicle: distilled water + Tween-80 98 % of control | endpoint: mean survival time, dose: 6.25 mg/kg/injection, schedule: Q04DX003 (ip), vehicle: distilled water + Tween-80 89 % of control | endpoint: mean survival time, dose: 12.5 mg/kg/injection, schedule: Q04DX003 (ip), vehicle: distilled water + Tween-80 100 % of control | endpoint: mean survival time, dose: 25.0 mg/kg/injection, schedule: Q04DX003 (ip), vehicle: distilled water + Tween-80 86 % of control | endpoint: mean survival time, dose: 50.0 mg/kg/injection, schedule: Q04DX003 (ip), vehicle: distilled water + Tween-80 87 % of control | endpoint: mean survival time, dose: 100.0 mg/kg/injection, schedule: Q04DX003 (ip), vehicle: distilled water + Tween-80 89 % of control | endpoint: mean survival time, dose: 200.0 mg/kg/injection, schedule: Q04DX003 (ip), vehicle: distilled water + Tween-80 93 % of control

CCCCN1C(=O)C(=O)N(c2cc(Cl)c(OC)cc2OC)C1=O
inactive: [2] 103 % of control | [3] 88 % of control | [4] 93 % of control and 96 % of control
